Data on 34 compounds can be found in US6846933B1, “Antimycobacterial compounds and method for making the same” (priority 2000, dated 2005).

Series [1] is described as follows: Quantitative estimate of relative lipophilicity (chloroform/water partitioning vs isoniazid). Conditions: ratio chloroform:water compared to same ratio for isoniazid as standard (INH = unity).
Series [2] deals with VERO cells. The series can be described thus: Cytotoxicity in VERO cells (MTT, 72 hours). In kind it is cell-based. Conditions: Chlorocebus sabaeus.
Series [3] deals with Mycobacterium tuberculosis H37Rv (ATCC 27294). The series can be described thus: TAACF MIC / primary screen vs M. tuberculosis H37Rv (MABA or BACTEC 460). Conditions: for MIC: Mycobacterium tuberculosis. It is filed as cell-based.
In series [4] the test system is M. tuberculosis Erdman (ATCC 35801) in monolayers of mouse bone marrow macrophages. The series can be described thus: Killing of M. tuberculosis Erdman in mouse bone marrow macrophages. Conditions: Mycobacterium tuberculosis, Bone marrow macrophage, 168 h. In kind it is cell-based.
In series [5] the test system is M. tuberculosis Erdman. Briefly: MIC vs M. tuberculosis Erdman. Conditions: Mycobacterium tuberculosis. In kind it is cell-based.
Series [6] has as its system M. avium (ATCC 25291). Briefly: TAACF M. avium assay. On the set-up: % Inhibition: concentration or dose not given beside the values. Conditions: for MIC: Mycobacterium avium, ATCC25291, M. avium assay; for % Inhibition: M. avium assay. In kind it is cell-based, Mycobacterium avium.
The subject of series [7] is M. tuberculosis TAC-R. The series can be described thus: microbe, parasite or virus in culture. In kind it is cell-based. Conditions: Mycobacterium tuberculosis, Bactec, strain panel.
Series [8] has as its system M. tuberculosis EMB-R. The series can be described thus: microbe, parasite or virus in culture. The conditions noted are these: Mycobacterium tuberculosis, read-out: MIC EMB-R (ug/ml). It is filed as cell-based.
Where [9] appears, read: M. tuberculosis assay, Tables 4 and 5, read-out: MIC.
The mark [10] stands for this setting: Bactec, strain panel, read-out: MIC Erdman.
Where [11] appears, read: BACTEC, Tables 2 and 3, read-out: MIC.
Setting [12] is: Bactec, strain panel, read-out: MIC H37Rv.
Setting [13] is: M. tuberculosis assay, Bactec, Tables 6, 7, 8, read-out: MIC.
Setting [14] is: M. tuberculosis assay, Bactec, Tables 6, 7, 8.
[15] abbreviates: Alamar, Table 11, read-out: MIC.
The mark [16] stands for this setting: M. tuberculosis assay, Table 13, primary screen.
Setting [17] is: M. tuberculosis assay, Table 13, primary screen, read-out: MIC.
Setting [18] is: Bactec, Tables 10-12, read-out: MIC.
The mark [19] stands for this setting: M. tuberculosis assay, Alamar, Table 7.

Converted amounts (≈) assume the structure as drawn. Where two headings read alike, the source gives them in different places.

Take `O=CNNC(=O)c1ccncc1`: the melting point is 94 to 96 °C.
With `CC(=O)NNC(=O)c1ccncc1`, the melting point lay within 158 to 160 °C.
The same measure, in the same setting: as for `CCCC(=O)NNC(=O)c1ccncc1`, the figure is 142 °C; as for `CCCCC(=O)NNC(=O)c1ccncc1`, 162 °C.
With `CC(=O)N1N=C(c2ccncc2)OC1c1c(Cl)cccc1Cl` (centres unmarked) [Oxadiazoline Example 4, 2-(2,6-Dichlorophenyl)-3-acetyl-5-(4-pyridyl)-1,3,4-oxadiazoline], the “Relative Lipophilicity” value in series [1] was 35,667.
`CO[C@H]1/C=C/O[C@@]2(C)Oc3c(C)c(O)c4c(O)c(c(/C=N/N5CCN(C)CC5)c(O)c4c3C2=O)NC(=O)/C(C)=C\C=C\[C@H](C)[C@H](O)[C@@H](C)[C@@H](O)[C@@H](C)[C@H](OC(C)=O)[C@@H]1C` [RMP, rifampin, reference compound]: in [2], the half-inhibitory concentration (IC50) amounted to 68 µg/mL (≈ 82.6 µM). In [3] (read-out: MIC of RMP vs H37Rv (Comment, Table 9), control in MBC test), the MIC amounted to 0.5 µg/mL. For the same compound, in series [3] (RMP at its MIC 0.25 μg/ml), the “% inhibition vs. M. tuberculosis (RMP control, Comment)” value stood at 99%.
On to `CCOC(=O)C/C(C)=N/NC(=O)c1ccncc1` [Sample ID 101743], for which, in series [4], the EC90 is 0.01 µg/mL (≈ 0.0401 µM) and the EC99 was more than 3.2 µg/mL. For the same compound, the MIC in [3] (setting [9]) was found to be 0.2 µg/mL (≈ 0.802 µM).
On the same counts, the results for `O=C(N/N=C/c1cccc(/C=N/NC(=O)c2ccncc2)c1)c1ccncc1` [Sample ID 102043] are 0.04 µg/mL (≈ 0.107 µM), more than 0.8 µg/mL and 0.05 µg/mL (≈ 0.134 µM).
For `CC(C)=CCCC(C)C/C=N/NC(=O)c1ccncc1` (centres unmarked) [Sample ID 102044], the EC90 in [4] is 0.02 µg/mL (≈ 0.0732 µM). The 99% effect level in [4] (EC99) was put at 0.08 µg/mL. Moreover, the MIC in series [5] (setting [10]) was less than 0.1 µg/mL; in [6] (setting [11]) it was 0.78 µg/mL (≈ 2.85 µM); in series [3] (setting [12]), less than 0.1 µg/mL; in series [3] (setting [13]), 0.2 µg/mL (≈ 0.732 µM); in [3] (setting [9]) it was 0.2 µg/mL (≈ 0.732 µM); in series [7], 3.13 µg/mL (≈ 11.4 µM).
On to `CCCCOc1ccc(/C=N/NC(=O)c2ccncc2)cc1` [Sample ID 102090], for which, in series [4], the 90% effect level (EC90) was put at 0.18 µg/mL (≈ 0.605 µM) and the EC99 was more than 1.6 µg/mL. Also, the MIC in [3] (setting [9]) stood at 0.1 µg/mL (≈ 0.336 µM).
In series [4], `CCCCCCCCCCCC/C=N/NC(=O)c1ccncc1` [Sample ID 102094] registered an EC90 of 0.08 µg/mL (≈ 0.252 µM) and a 99% effect concentration (EC99) of more than 3.2 µg/mL. Also, in series [3] (setting [9]), the MIC was 0.2 µg/mL (≈ 0.63 µM).
On the same counts, the results for `O=C(NN=C1CCCCC1)c1ccncc1` [Sample ID 102674] are 0.08 µg/mL (≈ 0.368 µM), more than 0.4 µg/mL and 0.03 µg/mL (≈ 0.138 µM).
On the same counts, the results for `CC(C)=NNC(=O)c1ccncc1` [Sample ID 102752] are 0.03 µg/mL (≈ 0.169 µM), 0.14 µg/mL and 0.1 µg/mL (≈ 0.564 µM).
On the same counts, the results for `O=C(N/N=C/c1ccccc1)c1ccncc1` [Sample ID 102787] are 0.04 µg/mL (≈ 0.178 µM), 0.12 µg/mL and 0.1 µg/mL (≈ 0.444 µM).
As to `COc1cc(/C=N/NC(=O)c2ccncc2)ccc1O` [Sample ID 102858], in [4], it took 0.03 µg/mL (≈ 0.111 µM) to reach the 90% level (EC90) and the EC99 came out at 0.12 µg/mL. In addition, the MIC in [3] (setting [9]) came to 0.2 µg/mL (≈ 0.737 µM).
`COc1ccc(/C=N/NC(=O)c2ccncc2)cc1` [Sample ID 102866]: it took 0.04 µg/mL (≈ 0.157 µM) to reach the 90% level in series [4] (EC90). It took 0.15 µg/mL to reach the 99% level in series [4] (EC99). For the same compound, the MIC is less than 0.05 µg/mL in series [5] (read-out: MIC Erdman (ug/ml)); 3.25 µg/mL (≈ 12.7 µM) in series [6] (setting [11]); less than 0.05 µg/mL in [3] (setting [12]); 0.1 µg/mL (≈ 0.392 µM) in series [3] (setting [13]); 0.1 µg/mL (≈ 0.392 µM) in series [3] (setting [9]); less than 3.25 µg/mL in series [7].
In series [4], `COc1ccccc1/C=N/NC(=O)c1ccncc1` [Sample ID 102871] came in with an EC90 of 0.06 µg/mL (≈ 0.235 µM) and a concentration for an effect of 99% (EC99) of 0.23 µg/mL. Besides, the MIC in series [3] (setting [9]) was found to be 0.2 µg/mL (≈ 0.783 µM).
On the same counts, the results for `CC(/C=N/NC(=O)c1ccncc1)=C\c1ccccc1` [Sample ID 103062] are 0.03 µg/mL (≈ 0.113 µM), 0.15 µg/mL and 0.2 µg/mL (≈ 0.754 µM).
On the same counts, the results for `O=C(N/N=C/c1ccc(F)cc1)c1ccncc1` [Sample ID 103167] are 0.02 µg/mL (≈ 0.0822 µM), 0.07 µg/mL and 0.1 µg/mL (≈ 0.411 µM).
Take `O=C(NN=C1CCCC1)c1ccncc1` [Sample ID 111298]: the MIC was 0.05 µg/mL (≈ 0.246 µM) in series [8]; 0.05 µg/mL (≈ 0.246 µM) in [5] (read-out: MIC Erdman (ug/ml)); 0.02 µg/mL (≈ 0.0984 µM) in series [3] (setting [14]); 0.025 µg/mL (≈ 0.123 µM) in series [3] (setting [9]); 0.05 µg/mL (≈ 0.246 µM) in series [3] (read-out: MIC H37Rv (ug/ml), Bactec, strain panel). Besides, the concentration for an effect of 90% (EC90) in series [4] amounted to 0.03 µg/mL (≈ 0.148 µM). Moreover, the EC99 in series [4] amounted to 0.16 µg/mL.
As to `CC1C/C(=N/NC(=O)c2ccncc2)CC(C)(C)C1` (centres unmarked) [Sample ID 114353], the MIC was less than 0.1 µg/mL in series [8], less than 0.1 µg/mL in series [5] (setting [10]), less than 0.1 µg/mL in [3] (setting [12]) and more than 6.25 µg/mL in series [3] (setting [14]).
For `O=C(N/N=C/c1cc(Cl)ccc1Cl)c1ccncc1` [Sample ID 117150], the MIC in series [5] (read-out: MIC Erdman (ug/ml)) is less than 0.05 µg/mL; in series [6] (setting [15]), more than 12.5 µg/mL; in series [6] (setting [11]), more than 3.25 µg/mL; in [3] (setting [12]), less than 0.05 µg/mL; in [3] (setting [13]), 0.1 µg/mL (≈ 0.34 µM); in series [7] it was more than 3.25 µg/mL. Moreover, the “% Inhibition” value in [6] (Alamar, Table 11) was determined as 0%.
On to `CC(=O)N1N=C(c2ccncc2)OC1c1c(Cl)cccc1Cl` (centres unmarked) [Sample ID 117899], for which, in [6] (Alamar, Table 11), the “% Inhibition” value is recorded as 12%. The MIC in [6] (setting [15]) is more than 12.5 µg/mL.
`CC(=O)N1N=C(c2ccncc2)OC1(C)c1ccccc1` (centres unmarked) [Sample ID 122487]: the “% Inhibition” value in series [3] (setting [16]) came to 98%. The MIC in series [3] (setting [17]) was less than 12.5 µg/mL.
As to `O=C(N/N=C/c1c(F)cccc1F)c1ccncc1` [Sample ID 122489], the IC50 in series [2] is more than 125 µg/mL. The “% Inhibition” value in series [6] (Bactec, Tables 10-12) was 45%; in [3] (setting [19]), 99%. The MIC in [6] (setting [18]) is more than 12.5 µg/mL; in series [3] (M. tuberculosis assay, Alamar, Tables 7 and 9), less than 0.2 µg/mL.
`O=C(N/N=C/c1ccc(Cl)c(Cl)c1)c1ccncc1` [Sample ID 122490] displayed a half-inhibitory concentration (IC50) in series [2] of more than 10 µg/mL. Further, the “% Inhibition” value in [6] (Bactec, Tables 10-12) came to 20%; in series [3] (setting [19]), 99%. The MIC in series [6] (setting [18]) was more than 12.5 µg/mL; in [3] (M. tuberculosis assay, Alamar, Tables 7 and 9, read-out: MIC), less than 0.2 µg/mL.
Consider `CC(=O)N1N=C(c2ccncc2)OC1c1ccc(Cl)c([N+](=O)[O-])c1` (centres unmarked) [Sample ID 122491], for which the “% Inhibition” value in series [3] (setting [16]) is on record as 98%. The MIC in series [3] (setting [17]) is less than 12.5 µg/mL.
Regarding `CC(=O)N1N=C(c2ccncc2)OC1c1c(F)cccc1F` (centres unmarked) [Sample ID 122492], the “% Inhibition” value in series [3] (setting [16]) is 99%. Also, in series [3] (setting [17]), the MIC was less than 12.5 µg/mL.
On the same counts, the results for `O=C(NNC(=S)Nc1ccccc1)c1ccncc1` [Sample ID 122697] are 79% and more than 12.5 µg/mL.
As for `CC(=O)N1N=C(c2ccncc2)OC1c1ccccc1[N+](=O)[O-]` (centres unmarked) [Sample ID 123667], the “% Inhibition” value in [3] (setting [16]) was found to be 38%. Also, in series [3] (setting [17]), the MIC was more than 12.5 µg/mL.
Consider `CC(=O)N1N=C(c2ccncc2)OC1c1ccc(Cl)c(Cl)c1` (centres unmarked) [Sample ID 123669], for which, in [6] (Bactec, Tables 10-12), the “% Inhibition” value was 65%. Also, the MIC in series [6] (setting [18]) was more than 12.5 µg/mL.
On the same counts, the results for `O=C(NNC(=S)Nc1ccc(Br)cc1)c1ccncc1` [Sample ID 125304] are 15% and more than 12.5 µg/mL.
Consider `O=C(NNC(=S)Nc1ccc(Cl)cc1)c1ccncc1` [Sample ID 126719], for which, in series [6] (Bactec, Tables 10-12), the “% Inhibition” value is recorded as 84% and the MIC was more than 12.5 µg/mL.
As to `O=C(NN=Cc1ccccc1[N+](=O)[O-])c1ccncc1` [Schiff Base Example 47, Isonicotinoylhydrazone of 2-Nitrobenzaldehyde], the “Relative Lipophilicity” value in series [1] is 316.

A word on the melting point: it is the temperature of the solid-liquid transition. As usually defined, the IC50 is the concentration at which inhibition is half-maximal. What is called EC90 is the concentration at which the effect reaches the 90% level. One may read the EC99 as the concentration at which the effect reaches the 99% level. For orientation: % Inhibition means the drop in the measured response relative to a control, in per cent.
